In patent publication US8540967B2, “Porphyrazine optical and dual optical/MR contrast and therapeutic agents” (Hoffman/Barrett, L.L.C., priority 2008, dated 2013):

Key:
[1] = Relaxivity (r1) of Gd-pz conjugates; type: physicochemical
Description: Dual-mode contrast agents were generated by coupling pz optical agents with gadolinium-based (Gd^3+) MR agents in order to permit co-registration of optical and MR image data. The synthetic versatility of the present pz structure allows a variety of strategies for attaching multiple MR imaging agents, for example, Gd^3+ chelates, to the pz structure. […] The relaxivity of a Gd^3+ chelate attached to a pz ranges from about 10 to about 14 mM-1s-1/Gd (Table 1).
In the preparation of Gd-pzs, ‘click’ chemistry was used to append 4 and 8 Gd^3+ chelates to an M[pz(A2; B2)] pz, leading to the Gd8-Mpz conjugate (M=Zn, Cu) shown above, and analogous Gd-4-Mpz conjugates having one chelate per pz ‘arm’. […] This is significant because the higher the observed relaxivity of the conjugate, the greater its efficacy as an in vivo MR contrast agent. Importantly, these conjugates are suitable as dual-mode contrast agents because the presence of as many as eight Gd agents has no significant influence on the pz luminescence for the M=Zn complex. In addition, the pz-Gd conjugates are water soluble and can be administered to rodents without the addition of DMSO.

[2] = system: A549 lung carcinoma cells; assay: Confocal NIR fluorescence microscopy of cellular uptake, tumor cells; type: cell-based; conditions: confocal images; compound 247: 50 μM, 24 hr stain
Description: (§1) Cellular uptake monitored by confocal fluorescence microscopy is dependent on the pz's overall amphiphilicity, and qualitative analysis indicates preferential uptake into tumor cells (e.g., A549) over non-tumorigenic cells (e.g., WI38 VA13).
(§2) The MTT test was performed using the procedure disclosed in S. Lee et al., Metal-Based Drugs (2008), pages 391-418.

[3] = system: A549 lung carcinoma cells; assay: Time course studies of pz accumulation and cell viability; type: cell-based
Description: Time course studies also were performed using compounds 241, 243, 244, 246, 247, 249, 254, and 255 using A549 lung carcinoma cells and W138 VA13 non-tumorigenic cells. The studies confirmed accumulation of a present pz in tumor cells and a decrease in tumor cell viability.

A549 tumor cells = assay: MTT assay, tumor cells; type: cell-based; conditions: 50 μM
Description: as §2

[4] = system: MDA-MB-231-RFP subcutaneous tumors; assay: NIR fluorescence imaging of subcutaneous tumors in female SCID mice; type: in vivo, mouse
Text: In a second experiment to verify that compound 247 robustly and reproducibly localizes in tumors of more than one tissue origin, female SCID mice were subcutaneously injected with MDA-MB-231-RFP cells stably expressing Red Fluorescent Protein (RFP). This approach provides excellent confirming information because (a) palpable subcutaneous tumors are easily identified prior to imaging as opposed to bone tumors which are difficult to detect non-invasively; (b) RFP-expressing tumors are visible through the skin as opposed to GFP tumors, which require removal of skin prior to imaging; (c) pz localization in the tumor is visible during non-invasive whole animal imaging; and (d) tumors are easily harvested, fixed, and processed for histochemical and biochemical analyses. Five mice were dosed with 20 nmol of compound 247 in 7.5% DMSO, administered intravenously. The […] wavelength used for RFP excitation was 535 nm with emission detected using a 565-615 nm bandpass filter. Compound 247 was excited using a 625 nm bandpass and emission detected at 700 nm. […] Therefore, there is no penetration of undesired signal during imaging. Images were acquired for RFP, as well as pz fluorescence, after 5, 24, 32 and 48 hours. […] With this remarkable contrast, compound 247 therefore acts as a ‘turn-on’ NIR-fluorescence tumor imager. At the conclusion of the 48 hour experiment, the tumors were excised and processed for antibody staining. Slices were stained for nuclei (DAPI) to determine the localization of pzs within heterogeneous 3-dimensional tumors. […] The important benefit of having the RFP and pz survive tissue processing is noted.

[5] = system: WI38 VA13 non-tumorigenic cells; assay: Confocal NIR fluorescence microscopy of cellular uptake, non-tumorigenic cells; type: cell-based; conditions: confocal images; 50 μM
Description: as §1, §2
Therefore, compound 270, a pz having a single appended Gd^3+, was synthesized.

[6] = system: PC3-EGFP (human prostate tumor cells stably expressing GFP) tibia tumors; assay: Biodistribution by NIR fluorescence imaging in mice with tibia tumors; type: in vivo, mouse
Description: In one experiment, male FVB/n5 Rag-1−/− mice were injected with […] PC3-EGFP (human prostate tumor cells stably expressing GFP) in the tibia four weeks prior to imaging with pzs. Prior to imaging, the mice were anesthetized with 4% isoflurane and injected with 20 nmol of compound 247 (150 μL, 7.5% DMSO) intravenously via the tail vein. Fluorescent images were acquired immediately and after 4, 24, and 42 hours. […] GFP images were acquired using excitation wavelengths of 465 nm and fluorescence was detected at 535 nm. X-ray images were acquired for anatomical co-registration.
The mice subsequently were euthanized, legs were excised, and images were acquired without the surrounding skin and muscle.

[7] = system: WI38 VA13 non-tumorigenic cells; assay: MTT assay, non-tumorigenic cells; type: cell-based; conditions: 50 μM
Description: as §2

Row | Compound | Relaxivity r1/Gd ([1]; per Gd) [mM⁻¹ s⁻¹] | Relaxivity r1 (molecular relaxivity) ([1]; per molecule) [mM⁻¹ s⁻¹] | Uptake/accumulation in A549 lung carcinoma cells (NIR fluorescence) [2] | Accumulation of pz in tumor cells [3] | Tumor cell viability [3] | Toxicity to tumor cells (MTT) (A549 tumor cells) | Time until pz fluorescence detectable in tumor ([4]; 20 nmol i.v. in 7.5% DMSO) [h] | pz fluorescence intensity in tumor over time ([4]; 20 nmol i.v., over the 48 hour experiment) | pz fluorescence in other organs or tissues ([4]; 20 nmol i.v., up to 48 hours) | Accumulation in MDA-231 tumors in vivo ([4]; 20 nmol tail vein, 5 to 48 hours) | Localization within excised tumor sections ([4]; tumors excised at 48 hours, DAPI-stained slices) | Uptake into WI38 VA13 cells (NIR fluorescence) [5] | pz fluorescence location after 4 hours ([6]; 20 nmol i.v. tail vein, 4 hours) | pz fluorescence location after 24 hours ([6]; 20 nmol i.v. tail vein, 24 hours) | Red fluorescence location in excised legs ([6]; 20 nmol, excised legs without skin and muscle, overlay with GFP) | Retention in tumor-free tibia ([6]; mouse 3 without tumor) | Toxicity to non-tumorigenic cells (MTT) [7]
1 | O=C([O-])CN1CCN(CC(=O)[O-])CCN(CC(=O)O)CCN(CC(=O)[O-])CC1.[Gd+3] [Gd-DOTA, gadolinium tetrazacyclododecanetetraacetic acid] | 3.2 | 3.2 | – | – | – | – | – | – | – | – | – | – | – | – | – | – | –
2 | CO[C@]1(C)Oc2c(c3nc4nc(nc5[nH]c(nc6nc(nc2[nH]3)-c2c(OC(C)C)ccc(OC(C)C)c2-6)c2c5O[C@@](C)(OC)[C@](C)(OC)O2)-c2c(OC(C)C)ccc(OC(C)C)c2-4)O[C@@]1(C)OC [Compound 247] | – | – | excellent uptake | accumulation | decrease | mildly toxic | ≤ 5 | increased dramatically | no pz fluorescence in other mouse organs or tissues | accumulates over time | precise colocalization of compound 247 with the tumor cytosol | lesser uptake | seen in the liver | highly localized in the mouse tibia tumors | localized in the tumors | not non-specifically retained in the bones | non-toxic
